According to US20250290117A1, “MOLECULAR PHENOTYPIC ANTIMICROBIAL SUSCEPTIBILITY TESTING” (priority 2024, published 2025):

How the values were obtained:
E. coli = experiment: Molecular phenotypic antimicrobial susceptibility test with direct PCR (no extraction DNA purification step); format: cell-based, Escherichia coli
Method: (§1) Detection of Molecular Phenotypic Antimicrobial Susceptibility. Disclosed herein are the methods for the detection of phenotypic antimicrobial susceptibility via molecular methods. The present invention describes how a specimen 100 with a known microbial load is incubated and then exposed to a panel of antimicrobial agents to determine sensitivity (prevention of growth) or resistance (allowance of growth) to the specific antimicrobial agents tested utilizing molecular methods.
Sample Collection. Specimens 100 are collected from patients using sterile collection processes that are employed in routine clinical care. Specimens are transported to the testing facility in boric acid preservative. Specimens 100 are subsequently divided into a first sample 104 and a second sample 108.
Preparation of the Specimens for Testing. The specimens 100 are put through a pathogen identification process using PCR technology (e.g., using the first sample 104). The process for pathogen isolation includes steps of harvesting the pathogen (e.g., via centrifugation), isolating pathogen DNA via a DNA isolation and/or purification kit, and performing PCR on the pathogen DNA via PCR components (e.g., primers, enzymes, buffers) as would be known to the skilled artisan. Simultaneously, an additional aliquot of the same specimen (e.g., the second sample 108) is placed with liquid culture media and incubated for 4-6 hours. This aliquot is used for antimicrobial susceptibility testing if indicated based on the pathogen detection results. After pathogen identification is completed and if more than 10,000 cells/mL of bacteria (e.g., eligible bacteria) are detected in the source specimen, the second sample 108 then enters the antimicrobial susceptibility phase of testing. Specimens 100 with lower pathogen loads could also be utilized in the antibiotic susceptibility phase of testing with or without a longer incubation period.
(§2) Preparation of Antimicrobial Susceptibility Testing Plates. Antimicrobial solutions are prepared at known concentrations. The specific antimicrobials and their concentrations are selected based on the pathogen of interest and the described antimicrobial resistance breakpoints for that specimen pathogen and antimicrobial combination. These antimicrobials have been selected based on those commonly utilized by healthcare providers in routine clinical care for the specific type of suspected infection. The number and types of antimicrobials utilized can be customized based on the infection source, pathogen detected, patient-specific factors such as allergies or other health conditions (e.g., chronic kidney disease or concurrent medication use), or healthcare provider preferences such as antimicrobial availability or cost.
The antimicrobial solutions are prepared in liquid culture media (such as Muller Hinton Broth) to achieve the desired antimicrobial concentration and are then stored at −80° C. until use. For a given specimen, each antimicrobial is tested at a single or multiple antimicrobial concentration(s) which is its established breakpoints for sensitivity. The antimicrobial solutions are prepared and plated out for each specific pathogen. This allows ease of use on the day of testing after defrosting the plate 112. Table 1, which illustrates the results of molecular phenotypic antimicrobial susceptibility testing when more than one organism is present in the source specimen, provides an example of an antimicrobial plate 112 prepared for this purpose. Of note, control wells containing only culture media are present on all plates 112. This allows for evaluation of pathogen load when no antimicrobial is present.
Specimen Exposure to Antimicrobial Agents. The 1 mL aliquot of the specimen 100 previously mixed with culture media and incubated is obtained. Using optical density measurements as a guide, the specimen 100 is diluted to 0.5 McFarland. […]

S. aureus = experiment: as above; format: cell-based, Staphylococcus aureus; details: for Ct at Sensitive Breakpoint: S. aureus isolate NR-46412 HIP13170, Ct at control (average) 18.824; for Molecular Antimicrobial Susceptibility Result: S. aureus isolate NR-46412 HIP13170, at sensitive breakpoint
Method: as §1
Sample Collection. Specimens 100 are collected from patients using sterile collection processes that are employed in routine clinical care. Specimens are transported to the testing facility in boric acid preservative.
Preparation of the Specimens for Testing. […] The process for pathogen isolation includes steps of harvesting the pathogen (e.g., via centrifugation), isolating pathogen DNA via a DNA isolation and/or purification kit, and performing PCR on the pathogen DNA via PCR components (e.g., primers, enzymes, buffers) as would be known to the skilled artisan. […] This aliquot is used for antimicrobial susceptibility testing if indicated based on the pathogen detection results. […] Specimens 100 with lower pathogen loads could also be utilized in the antibiotic susceptibility phase of testing with or without a longer incubation period.
as §2
The antimicrobial solutions are prepared in liquid culture media (such as Muller Hinton Broth) to achieve the desired antimicrobial concentration and are then stored at −80° C. until use. For a given specimen, each antimicrobial is tested at a single or multiple antimicrobial concentration(s) which is its established breakpoints for sensitivity. The antimicrobial solutions are prepared and plated out for each specific pathogen. […] This allows for evaluation of pathogen load when no antimicrobial is present.
Specimen Exposure to Antimicrobial Agents. The 1 mL aliquot of the specimen 100 previously mixed with culture media and incubated is obtained. Using optical density measurements as a guide, the specimen 100 is diluted to 0.5 McFarland.
Antimicrobial exposure plates are typically placed into an incubator for 12-16 hours.
Nucleic Acid Amplification of Antimicrobial Agent Exposed Pathogens. The antimicrobial exposure plate is removed after the period of incubation. The specimen then undergoes a purification or lysis step. For example, the specimen may undergo a purification step (e.g., magnetic bead-based or other separation protocol to isolate genetic material). In another example, the specimen may undergo a cell lysis step. For example, buffer (e.g., lysis buffer) may be added and incubated in the thermal cycler for preparation for direct PCR. Next, the specimen may undergo a polymerase chain reaction (PCR) testing protocol, whereby a semi-quantitative PCR method is utilized. This may be completed either with or without a specific extraction protocol step. The pathogens can be individually targeted and detected, or a universal genetic sequence can be utilized to detect the antimicrobial susceptibility of the specimen as a whole.

[1] = E. coli #1 - WDCM 00090 - 6.2×E3, specimen with <10,000 cells/mL, direct PCR after 16 hours of incubation
[2] = E. coli #1 - WDCM 00090 - 6.2×E3, specimen with <10,000 cells/mL, direct PCR after 16 hours of incubation, Ct at control 13.787
[3] = E. coli #2 - WDCM 00090 - 6.2×E3, specimen with <10,000 cells/mL, direct PCR after 16 hours of incubation
[4] = E. coli #2 - WDCM 00090 - 6.2×E3, specimen with <10,000 cells/mL, direct PCR after 16 hours of incubation, Ct at control 13.46
[5] = E. coli isolate JJ1887, direct PCR, Ct at control (average) 12.832
[6] = E. coli isolate JJ1887, direct PCR, at sensitive breakpoint

| Compound | Molecular Antimicrobial Susceptibility Result (E. coli; [1]) | Ct at Sensitive Breakpoint (E. coli; [2]) | Molecular Antimicrobial Susceptibility Result (E. coli; [3]) | Ct at Sensitive Breakpoint (E. coli; [4]) | Ct at Sensitive Breakpoint (E. coli; [5]) | Molecular Antimicrobial Susceptibility Result (E. coli; [6]) | Ct at Sensitive Breakpoint (S. aureus) | Molecular Antimicrobial Susceptibility Result (S. aureus) |
| --- | --- | --- | --- | --- | --- | --- | --- | --- |
| Cc1nnc(SCC2=C(C(=O)O)N3C(=O)[C@@H](NC(=O)Cn4cnnn4)[C@H]3SC2)s1 [Cefazolin] | Sensitive (Antimicrobial wells with pathogen load detected below the control wells (typically >2 cycle thresholds later) may be reported as Sensitive) | 25.72 | Sensitive (Antimicrobial wells with pathogen load detected below the control wells (typically >2 cycle thresholds later) may be reported as Sensitive) | 26.56 | 12.804 | Resistant | – | – |
| CN[C@H](CC(C)C)C(=O)N[C@H]1C(=O)N[C@@H](CC(N)=O)C(=O)N[C@H]2C(=O)N[C@H]3C(=O)N[C@H](C(=O)N[C@H](C(=O)O)c4cc(O)cc(O)c4-c4cc3ccc4O)[C@H](O)c3ccc(c(Cl)c3)Oc3cc2cc(c3O[C@@H]2O[C@H](CO)[C@@H](O)[C@H](O)[C@H]2O[C@H]2C[C@](C)(N)[C@H](O)[C@H](C)O2)Oc2ccc(cc2Cl)[C@H]1O [Vancomycin] | – | – | – | – | – | – | 17.078 | Resistant |
| C[C@@H]1O[C@@H]1P(=O)(O)O [Fosfomycin] | Sensitive (Antimicrobial wells with pathogen load detected below the control wells (typically >2 cycle thresholds later) may be reported as Sensitive) | 27.59 | Sensitive (Antimicrobial wells with pathogen load detected below the control wells (typically >2 cycle thresholds later) may be reported as Sensitive) | 28.41 | – | – | – | – |
| CC1(C)S[C@@H]2[C@H](NC(=O)[C@H](N)c3ccccc3)C(=O)N2[C@H]1C(=O)O [Ampicillin] | Sensitive (Antimicrobial wells with pathogen load detected below the control wells (typically >2 cycle thresholds later) may be reported as Sensitive) | 25.93 | Sensitive (Antimicrobial wells with pathogen load detected below the control wells (typically >2 cycle thresholds later) may be reported as Sensitive) | 26.22 | 12.265 | Resistant | – | – |
| CN(C)[C@@H]1C(O)=C(C(N)=O)C(=O)[C@@]2(O)C(O)=C3C(=O)c4c(O)cccc4[C@@](C)(O)[C@H]3C[C@@H]12 [Tetracycline] | – | – | – | – | – | – | 18.43 | Resistant |
| Gentamicin | Sensitive (Antimicrobial wells with pathogen load detected below the control wells (typically >2 cycle thresholds later) may be reported as Sensitive) | 28.57 | Sensitive (Antimicrobial wells with pathogen load detected below the control wells (typically >2 cycle thresholds later) may be reported as Sensitive) | 28.70 | 12.308 | Resistant | – | Resistant |
| CO/N=C(\C(=O)N[C@@H]1C(=O)N2C(C(=O)[O-])=C(C[N+]3(C)CCCC3)CS[C@H]12)c1csc(N)n1 [Cefepime] | – | – | – | – | 12.796 | Resistant | – | – |
| CO/N=C(\C(=O)N[C@@H]1C(=O)N2C(C(=O)O)=C(CSc3nc(=O)c(=O)[nH]n3C)CS[C@H]12)c1csc(N)n1 [Ceftriaxone] | Sensitive (Antimicrobial wells with pathogen load detected below the control wells (typically >2 cycle thresholds later) may be reported as Sensitive) | 26.31 | Sensitive (Antimicrobial wells with pathogen load detected below the control wells (typically >2 cycle thresholds later) may be reported as Sensitive) | 27.18 | 12.353 | Resistant | – | – |
| C[C@@H](O)[C@H]1C(=O)N2C(C(=O)O)=C(S[C@@H]3CN[C@H](C(=O)N(C)C)C3)[C@H](C)[C@H]12 [Meropenem] | – | – | – | – | 25.055 | Sensitive (Antimicrobial wells with pathogen load detected below the control wells (typically >2 cycle thresholds later) may be reported as Sensitive) | – | – |
| CO[C@@]1(NC(=O)Cc2cccs2)C(=O)N2C(C(=O)O)=C(COC(N)=O)CS[C@@H]21 [Cefoxitin] | – | – | – | – | – | – | 14.322 | Resistant |
| Piperacillin/Tazobactam | Sensitive (Antimicrobial wells with pathogen load detected below the control wells (typically >2 cycle thresholds later) may be reported as Sensitive) | 26.78 | Sensitive (Antimicrobial wells with pathogen load detected below the control wells (typically >2 cycle thresholds later) may be reported as Sensitive) | 27.46 | 23.923 | Sensitive (Antimicrobial wells with pathogen load detected below the control wells (typically >2 cycle thresholds later) may be reported as Sensitive) | – | – |
| Ampicillin/Sulbactam | – | – | – | – | 12.693 | Resistant | – | – |
| O=C1CN(/N=C/c2ccc([N+](=O)[O-])o2)C(=O)N1 [Nitrofurantoin] | Sensitive (Antimicrobial wells with pathogen load detected below the control wells (typically >2 cycle thresholds later) may be reported as Sensitive) | 27.90 | Sensitive (Antimicrobial wells with pathogen load detected below the control wells (typically >2 cycle thresholds later) may be reported as Sensitive) | 28.97 | 26.305 | Sensitive (Antimicrobial wells with pathogen load detected below the control wells (typically >2 cycle thresholds later) may be reported as Sensitive) | 31.922 | Sensitive (Antimicrobial wells with pathogen load detected below the control wells (typically >2 cycle thresholds later) may be reported as Sensitive) |
